# Measured values taken from patent US20110053773A1, “METHODS OF IMPROVING NUTRITIONAL VALUE OF PLANTS” (UNIVERSITY OF TENNESSEE RESEARCH FOUNDATION, priority 2009, published 2011).
# Tests used:
# [1] = system: kale 'Red Russian'; experiment: Content analysis of kale: protein, amino acids, fiber, fatty acids, minerals (Example 4, Tables 12-14); type: in vivo; conditions: 28 DA-A; for Alanine, Percent Increase over the Untreated Check (on a % dry matter basis) / Aspartic acid, Percent Increase over the Untreated Check (on a % dry matter basis) / Cysteine, Percent Increase over the Untreated Check (on a % dry matter basis) / Glutamic acid, Percent Increase over the Untreated Check (on a % dry matter basis) / Glycine, Percent Increase over the Untreated Check (on a % dry matter basis) / Iso-leucine, Percent Increase over the Untreated Check (on a % dry matter basis) / Leucine, Percent Increase over the Untreated Check (on a % dry matter basis) / Lysine, Percent Increase over the Untreated Check (on a % dry matter basis) / Methionine, Percent Increase over the Untreated Check (on a % dry matter basis) / Proline, Percent Increase over the Untreated Check (on a % dry matter basis) / Threonine, Percent Increase over the Untreated Check (on a % dry matter basis) / Total Amino acids, Percent Increase over the Untreated Check (on a % dry matter basis) / Total Protein, Percent Increase over the Untreated Check (on a % dry matter basis) / Valine, Percent Increase over the Untreated Check (on a % dry matter basis): chlorothalonil ###
# Experimental: (§1) Greenhouse and laboratory studies were conducted to ascertain the tolerance and nutritional quality differences following postemergence applications of the insecticide chlorpyrifos, the fungicide chlorothalonil, the PGRs mepiquat-chloride and paclobutrazol, and the safeners napthalic anhydride and isoxadifen-ethyl on kale ‘Red Russian’ and basil ‘Genovese’. Visual injury was rated based on general phytotoxicity, chlorosis, and visual stunting and each measurement was based on a percent scale from 0 to 100 where 0 equals no visual response and 100 equals complete plant death. Kale and basil were both harvested approximately 4 weeks after treatments and plants were pooled over replicates for content analysis of crude protein, crude amino acid content, acid detergent fiber, neutral detergent fiber, total fatty acids, and/or key mineral content (including Na, Ca, P, Mg, K, Fe, Mn, Zn, and Cu). In addition, the amounts of key individual amino acids (aspartic acid, threonine, glutamic acid, proline, glycine, cysteine, valine, leucine, isoleucine, methionine, and lysine) and composite classifications of fatty acid (saturated fatty acids, monounsaturated fatty acids, polyunsaturated fatty acids) were also analyzed from these sub-samples for kale (Tables 10-14).
# [2] = system: basil ‘Genovese’; experiment: Yield, fresh weight of basil after insecticide, fungicide, PGRs and safeners (Example 4, Table 10); type: in vivo; conditions: DA-A, rates g ai/ha: chlropyrifos 1120, chlorothalonil 2630, paclobutrazol 3.23, mepiquat-chloride 12.3, Isoxadifen 8, Napthalic anhydride 264, + NIS 0.25 % v/v, check 31.8
# Experimental: as §1
# [3] = first-listed rate g ai/ha: chlropyrifos ###, paclobutrazol 3.2, mepiquat-chloride 12, + NIS 0.3 % v/v
# [4] = rates g ai/ha: chlropyrifos 1120, chlorothalonil 2630, paclobutrazol 3.23, mepiquat-chloride 12.3, + NIS 0.25 % v/v
# [5] = rates g ai/ha: chlropyrifos 3370, chlorothalonil 7900, paclobutrazol 9.7, mepiquat-chloride 37, + NIS 0.25 % v/v
# [6] = second-listed rate g ai/ha: chlropyrifos ###, paclobutrazol 9.7, mepiquat-chloride 37, + NIS 0.3 % v/v
structure (smiles),measurement,setting,value
CCOP(=S)(OCC)Oc1nc(Cl)c(Cl)cc1Cl [chlropyrifos],"Alanine, Percent Increase over the Untreated Check (on a % dry matter basis)",[1]; [3],−1 % check
same,"Aspartic acid, Percent Increase over the Untreated Check (on a % dry matter basis)",[1]; [3],0 % check
same,"Cysteine, Percent Increase over the Untreated Check (on a % dry matter basis)",[1]; [3],0 % check
same,"Glutamic acid, Percent Increase over the Untreated Check (on a % dry matter basis)",[1]; [3],5 % check
same,"Glycine, Percent Increase over the Untreated Check (on a % dry matter basis)",[1]; [3],−4 % check
same,"Iso-leucine, Percent Increase over the Untreated Check (on a % dry matter basis)",[1]; [3],0 % check
same,"Leucine, Percent Increase over the Untreated Check (on a % dry matter basis)",[1]; [3],0 % check
same,"Lysine, Percent Increase over the Untreated Check (on a % dry matter basis)",[1]; [3],6 % check
same,"Methionine, Percent Increase over the Untreated Check (on a % dry matter basis)",[1]; [3],2 % check
same,"Proline, Percent Increase over the Untreated Check (on a % dry matter basis)",[1]; [3],−2 % check
same,"Threonine, Percent Increase over the Untreated Check (on a % dry matter basis)",[1]; [3],−2 % check
same,"Total Amino acids, Percent Increase over the Untreated Check (on a % dry matter basis)",[1]; [3],1 % check
same,"Total Protein, Percent Increase over the Untreated Check (on a % dry matter basis)",[1]; [3],3 % check
same,"Valine, Percent Increase over the Untreated Check (on a % dry matter basis)",[1]; [3],1 % check
same,"ADF, Percent Increase Over the Untreated Check (on a % dry matter basis)",[1]; [4],1 % check
same,"Calcium, Percent Increase Over the Untreated Check (on a % dry matter basis)",[1]; [4],18 % check
same,"Copper, Percent Increase Over the Untreated Check (on a % dry matter basis)",[1]; [4],50 % check
same,"Iron, Percent Increase Over the Untreated Check (on a % dry matter basis)",[1]; [4],33 % check
same,"Magnesium, Percent Increase Over the Untreated Check (on a % dry matter basis)",[1]; [4],11 % check
same,"Manganese, Percent Increase Over the Untreated Check (on a % dry matter basis)",[1]; [4],39 % check
same,"NDF, Percent Increase Over the Untreated Check (on a % dry matter basis)",[1]; [4],−8 % check
same,"Phosphorous, Percent Increase Over the Untreated Check (on a % dry matter basis)",[1]; [4],9 % check
same,"Potassium, Percent Increase Over the Untreated Check (on a % dry matter basis)",[1]; [4],4 % check
same,"Sodium, Percent Increase Over the Untreated Check (on a % dry matter basis)",[1]; [4],13 % check
same,"Zinc, Percent Increase Over the Untreated Check (on a % dry matter basis)",[1]; [4],18 % check
same,"ADF, Percent Increase Over the Untreated Check (on a % dry matter basis)",[1]; [5],9 % check
same,"Calcium, Percent Increase Over the Untreated Check (on a % dry matter basis)",[1]; [5],0 % check
same,"Copper, Percent Increase Over the Untreated Check (on a % dry matter basis)",[1]; [5],28 % check
same,"Iron, Percent Increase Over the Untreated Check (on a % dry matter basis)",[1]; [5],3 % check
same,"Magnesium, Percent Increase Over the Untreated Check (on a % dry matter basis)",[1]; [5],3 % check
same,"Manganese, Percent Increase Over the Untreated Check (on a % dry matter basis)",[1]; [5],16 % check
same,"NDF, Percent Increase Over the Untreated Check (on a % dry matter basis)",[1]; [5],1 % check
same,"Phosphorous, Percent Increase Over the Untreated Check (on a % dry matter basis)",[1]; [5],7 % check
same,"Potassium, Percent Increase Over the Untreated Check (on a % dry matter basis)",[1]; [5],1 % check
same,"Sodium, Percent Increase Over the Untreated Check (on a % dry matter basis)",[1]; [5],45 % check
same,"Zinc, Percent Increase Over the Untreated Check (on a % dry matter basis)",[1]; [5],10 % check
same,"Alanine, Percent Increase over the Untreated Check (on a % dry matter basis)",[1]; [6],6 % check
same,"Aspartic acid, Percent Increase over the Untreated Check (on a % dry matter basis)",[1]; [6],7 % check
same,"Cysteine, Percent Increase over the Untreated Check (on a % dry matter basis)",[1]; [6],6 % check
same,"Glutamic acid, Percent Increase over the Untreated Check (on a % dry matter basis)",[1]; [6],12 % check
same,"Glycine, Percent Increase over the Untreated Check (on a % dry matter basis)",[1]; [6],3 % check
same,"Iso-leucine, Percent Increase over the Untreated Check (on a % dry matter basis)",[1]; [6],6 % check
same,"Leucine, Percent Increase over the Untreated Check (on a % dry matter basis)",[1]; [6],6 % check
same,"Lysine, Percent Increase over the Untreated Check (on a % dry matter basis)",[1]; [6],11 % check
same,"Methionine, Percent Increase over the Untreated Check (on a % dry matter basis)",[1]; [6],0 % check
same,"Proline, Percent Increase over the Untreated Check (on a % dry matter basis)",[1]; [6],9 % check
same,"Threonine, Percent Increase over the Untreated Check (on a % dry matter basis)",[1]; [6],4 % check
same,"Total Amino acids, Percent Increase over the Untreated Check (on a % dry matter basis)",[1]; [6],7 % check
same,"Total Protein, Percent Increase over the Untreated Check (on a % dry matter basis)",[1]; [6],5 % check
same,"Valine, Percent Increase over the Untreated Check (on a % dry matter basis)",[1]; [6],7 % check
same,Yield Fresh weight,[2],24.6 grams
